The text below walks through data of article PMC7667639, “Optimized Opioid-Neurotensin Multitarget Peptides: From Design to Structure–Activity Relationship Studies” (Journal of Medicinal Chemistry, 2020).

Where two headings read alike, the source gives them in different places. Numbered stars: 1 amine (or outer) side, 2 acyl side, 3 side chain; on linkers, the order of the positions; unused ones are H or OH. Square brackets hold non-standard residues; d marks the D form. Peptide text beside a SMILES is read from it. (6-OH)Tic = 6-hydroxy-1,2,3,4-tetrahydroisoquinoline-3-carboxylic acid, O=C([C@@H]1Cc2cc(O[*:3])ccc2CN1[*:1])[*:2]; X1 = O=C1[C@@H](N[*:1])Cc2ccccc2CN1CCC(=O)[*:2]; X2 = O=C([C@@H]1Cc2cc(O)ccc2CN1[*:1])[*:2]; Dmt = Cc1cc(O)cc(C)c1C[C@H](N)C(=O)O; Tle = CC(C)(C)[C@H](N)C(=O)O; β3hK = NCCCC[C@H](N)CC(=O)O Some results are limits rather than exact numbers.

Data set [1] concerns the target T1, human NTS1 (Homo sapiens, UniProt P30989). Set-up: host or cells: CHO-K1. The note with it: CHO membranes, read-out: affinity Ki NTS1; cited from earlier work.
Data set [2] concerns the target T2, human NTS2 receptor (Homo sapiens, UniProt O95665).
T2 construct: host or cells: 1321N1 (human astrocytoma)
The following applies: cited from earlier work; for Ki: human receptor, 1321N1 membranes, read-out: affinity Ki NTS2; for selectivity NTS2/NTS1: ratio of Ki values.

The test system of the next data set is NTS2. Further details: method as in PMID 27359371. The following applies: in words; cited from earlier work.
A further data set has as its target T3, human MOR (Homo sapiens, UniProt P35372).
T3 construct: host or cells: CHO (CHO-hMOR)
Format: biochemical. The following applies: in words.

In data set [3] the target is T1, human NTS1. As to the kind of experiment: cell-based. Further details: expressed in transfected cells; host or cells: HEK293 (transfected with PEI).
Data set [4] concerns the target T2, human NTS2 receptor. In words: Competitive radioligand binding ([125I]-NT), 1321N1-hNTS2 membranes. The following applies: ratio of Ki values NTS1 vs NTS2.
In a further data set the target is T4, human KOR (Homo sapiens, UniProt P41145).
T4 construct: host or cells: CHO (CHO-hKOR)
As to the kind of experiment: [35S]GTPγS binding assay, CHO-hKOR membranes. Format: biochemical. The following applies: in words. A general note: Binding of GTPγS marks nucleotide exchange on a G protein.

Another data set concerns the target T5, human DOR (Homo sapiens, UniProt P41143).
T5 construct: host or cells: CHO (CHO-hDOR)
As to the kind of experiment: [35S]GTPγS binding assay, CHO-hDOR membranes. Format: biochemical. The note with it: in words.

Data set [5] deals with human δ-opioid receptor (human) (UniProt P41143).
Data set [6] has as its target human neurotensin 1 receptor (human) (UniProt P30989).
Data set [7] concerns the target human κ-opioid receptor (human) (UniProt P41145).
In data set [8] the target is human μ-opioid receptor (human) (UniProt P35372).
The target of data set [9] is human neurotensin 1 receptor (human) (UniProt P30989). As to the kind of experiment: radioligand binding; competition with [125I]-NT on membranes (15–20 μg) of CHO cells (hNTS1) or 1321N1 astrocytoma cells (hNTS2); binding buffer 10 mM Tris, 1 mM EDTA pH 7.5, peptides diluted with 50 mM Tris-HCl and 0.2% BSA; 60 min, ambient temperature, filtration; Ki by Cheng and Prusoff.

Data set [10] addresses human neurotensin 2 receptor (human) (UniProt O95665). The description is as above.
In data set [11] the target is human δ-opioid receptor (human) (UniProt P41143). As to the kind of experiment: radioligand binding; competition on membranes (15–20 μg) of CHO cells stably expressing hMOR, hDOR or hKOR; radioligands [3H]DAMGO (hMOR), [3H]diprenorphine (hDOR), [3H]U69,593 (hKOR); 50 mM Tris-HCl pH 7.4, 60 min, 25 °C, filtration; Ki by Cheng and Prusoff.
Data set [12] addresses human κ-opioid receptor (human) (UniProt P41145). The data set is described as above.
Data set [13] has as its target human μ-opioid receptor (human) (UniProt P35372). Described as above.
The conditions of data set [14]: cited from earlier work.

As usually defined, the Ki is a measure of affinity in units of concentration, obtained from inhibition or displacement. For “H-Arg-Arg-Pro-(6-OH)Tic-Tle-Leu-OH (H-RRP[(6-OH)Tic][Tle]L-OH; SMILES CC(C)C[C@H](NC(=O)[C@@H](NC(=O)[C@@H]1Cc2cc(O)ccc2CN1C(=O)[C@@H]1CCCN1C(=O)[C@H](CCCNC(=N)N)NC(=O)[C@@H](N)CCCNC(=N)N)C(C)(C)C)C(=O)O) [compound 15]”, the Ki with human NTS1 [1] was 6680 ± 3700 nM; with human NTS2 receptor [2], 132 ± 47 nM.

On to `COc1cccc(OC)c1-c1cc(C(=O)NC2(C(=O)O)C3CC4CC(C3)CC2C4)nn1-c1ccc(C(=O)N(C)CCCN(C)C)cc1C(C)C` (stereo not shown) [SR142948a], for which the “activity at NTS2 in the FLIPR assay” value in the data set with NTS2 is recorded as “full agonist activity”.

A word on the EC50: it is the midpoint of the concentration-response curve. A high value points to lower potency in that assay. Regarding `Cc1cc(O)cc(C)c1C[C@H](N)C(=O)N[C@H](CCCNC(=N)N)C(=O)N[C@H]1Cc2ccccc2CN(CCC(=O)N[C@@H](CCCNC(=N)N)C(=O)N[C@@H](CCCNC(=N)N)C(=O)N2CCC[C@H]2C(=O)N2Cc3ccc(O)cc3C[C@H]2C(=O)N[C@H](C(=O)N[C@@H](CC(C)C)C(=O)O)C(C)(C)C)C1=O` [peptide 9, H-Dmt-D-Arg-Aba-β-Ala-Arg-Arg-Pro-(6-OH)Tic-Tle-Leu-OH] (H-[Dmt][dR][X1]RRP[X2][Tle]L-OH), the “functional profile at the MOR (G protein activation)” value (shortened to “functional profile at the MOR”) at human MOR is “very potent agonists”. Further, on human NTS1 [3], the EC50 was around 2000 nM and the “fold decrease in NTS1 activity (EC50) compared to NT(8-13)” value was 13,000 fold. The “fold decrease in NTS1 activity (EC50) compared to 1” value on human NTS1 [3] (vs 1) is “ca. 1000 fold”. Further, the “selectivity NTS2/NTS1” value on human NTS2 receptor [4] is recorded as above 2700.

On to “H-Arg-Arg-Pro-(6-OH)Tic-Tle-Leu-OH [compound 15]”, for which, on human NTS2 receptor [2], the “selectivity NTS2/NTS1” value is listed as 50.

In the case of “H-β^3hArg-Arg-Pro-Dmt-Tle-Leu-OH [peptide 13]”, the Ki was 2.3 ± 0.2 nM on human NTS1 [1] and 0.11 ± 0.07 nM on human NTS2 receptor [2]. Also, the “selectivity NTS2/NTS1” value on human NTS2 receptor [2] was 20.1.

As for “H-Arg-Arg-Pro-m-Tyr-Tle-Leu-OH [compound 16]”, the Ki at human NTS1 [1] is 93 ± 22 nM. Moreover, on human NTS2 receptor [2], the Ki is 24 ± 18 nM and the “selectivity NTS2/NTS1” value is 4.

As for `COc1cccc(OC)c1-c1cc(C(=O)NC2(C(=O)O)C3CC4CC(C3)CC2C4)nn1-c1ccnc2cc(Cl)ccc12` (stereo not shown) [SR48692], the “activity at NTS2 in the FLIPR assay” value in the data set with NTS2 is reported as “full agonist activity”.

For the compound `Cc1cc(O)cc(C)c1C[C@H](NC(=O)[C@@H]1CCCN1C(=O)[C@H](CCCNC(=N)N)NC(=O)[C@H](CCCNC(=N)N)NC(=O)CCN1Cc2ccccc2C[C@H](NC(=O)[C@@H](CCCNC(=N)N)NC(=O)[C@@H](N)Cc2c(C)cc(O)cc2C)C1=O)C(=O)N[C@H](C(=O)N[C@@H](CC(C)C)C(=O)O)C(C)(C)C` [compound 5, H-Dmt-D-Arg-Aba-β-Ala-Arg-Arg-Pro-Dmt-Tle-Leu-OH] (H-[Dmt][dR][X1]RRP[Dmt][Tle]L-OH), at human MOR, the “functional profile at the MOR” value is recorded as “very potent agonists”.

For the compound `Cc1cc(O)cc(C)c1C[C@H](N)C(=O)N[C@H](CCCCN)C(=O)N[C@@H](Cc1ccccc1)C(=O)N[C@@H](Cc1ccccc1)C(=O)N[C@@H](CCCCN)C(=O)N[C@@H](CCCCN)C(=O)N1CCC[C@H]1C(=O)N[C@@H](Cc1ccccc1)C(=O)N[C@H](C(=O)N[C@@H](CC(C)C)C(=O)O)C(C)(C)C` [PK20] (H-[Dmt][dK]FFKKPF[Tle]L-OH), the “functional profile at the MOR” value at human MOR is “potent full agonist”. Also, the “functional profile at the KOR” value on human KOR is reported as “relatively potent KOR partial agonist”. For the same compound, on human DOR, the “functional profile at the DOR” value is “weak partial agonist”.

`Cc1cc(O)cc(C)c1C[C@H](N)C(=O)N[C@H](CCCNC(=N)N)C(=O)N[C@H]1Cc2ccccc2CN(CCC(=O)N[C@@H](CCCNC(=N)N)C(=O)N[C@@H](CCCNC(=N)N)C(=O)N2CCC[C@H]2C(=O)N[C@@H](Cc2ccc(O)cc2)C(=O)N[C@H](C(=O)N[C@@H](CC(C)C)C(=O)O)C(C)(C)C)C1=O` [peptide 3, H-Dmt-D-Arg-Aba-β-Ala-Arg-Arg-Pro-Tyr-Tle-Leu-OH] (H-[Dmt][dR][X1]RRPY[Tle]L-OH): the “functional profile at the MOR” value on human MOR is given as “very potent agonists”.

As to PK20 (peptide), in data set [5], the DOR [^35S]GTPγS binding, EC50 came to 479 nM and the DOR [^35S]GTPγS binding, Emax (% of DPDPE) is 78%. In data set [6], this compound registered an NTS1 Gαq activation (BRET), EC50 of 19.1 nM and an NTS1 Gαq activation (BRET), Emax (% of NT(8-13)) of 101%. Besides, in data set [7], the KOR [^35S]GTPγS binding, EC50 was determined as 47.1 nM and the KOR [^35S]GTPγS binding, Emax (% of U69,593) was determined as 65%. In data set [8], this compound registered an MOR [^35S]GTPγS binding, EC50 of 13.3 nM; an MOR [^35S]GTPγS binding, Emax (% of DAMGO) of 91%; an MOR β-arrestin-2 recruitment, EC50 of 956 nM; an MOR β-arrestin-2 recruitment, Emax (% of DAMGO) of 69%. Besides, in [9], the Ki amounted to 188 nM. The Ki in data set [10] worked out at 29.5 nM. In data set [11], the Ki amounted to 46.4 nM. In data set [12], this compound came in with a Ki of 33.5 nM. Moreover, in [13], the Ki was 4.13 nM.

With “H-Arg-Arg-Pro-Dmt-Tle-Leu-OH [compound 14]”, the Ki at human NTS1 [1] is 13.4 ± 2 nM. In addition, on human NTS2 receptor [2], the Ki is 3 ± 2 nM and the “selectivity NTS2/NTS1” value was 4.5.

As to `CC(C)C[C@H](NC(=O)[C@@H](NC(=O)[C@@H]1Cc2cc(O)ccc2CN1C(=O)[C@@H]1CCCN1C(=O)[C@H](CCCCN)NC(=O)C[C@@H](N)CCCCN)C(C)(C)C)C(=O)O` [peptide 2] (H-[β3hK]KP[X2][Tle]L-OH), the “plasma stability t1/2” value in data set [14] is given as above 24 h.
